We go through ten compounds from patent publication US20250145608A1, “KRAS DEGRADING COMPOUNDS COMPRISING ANNULATED 2-AMINO-3-CYANO THIOPHENES” (Boehringer Ingelheim Int'l GmbH Corp., priority 2021, published 2025).

The structures appear in SMILES notation. Where two headings read alike, the source gives them in different places. A value given as a limit tells only on which side of the number the result lay.

Common to all, as to assay type: cell-based
One assay deals with T1, KRAS(G12D) (Homo sapiens, UniProt P01116, G12D).
T1 construct: introduced immediately downstream of the initiating Methionine codon of the endogenous KRAS locus; host or cells: GP5d-HiBit-KRAS(G12D), a CRISPR knock-in at the endogenous locus
T1 sequence (P01116 1-188 isoform P01116-2 G12D): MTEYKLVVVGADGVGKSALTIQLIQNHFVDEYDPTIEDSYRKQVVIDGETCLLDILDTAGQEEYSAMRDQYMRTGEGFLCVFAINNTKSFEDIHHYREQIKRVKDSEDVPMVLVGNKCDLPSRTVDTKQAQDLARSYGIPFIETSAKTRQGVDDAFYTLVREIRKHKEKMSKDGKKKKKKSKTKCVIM
The assay can be described thus: HiBit degradation assay in GP5d-HiBit-KRAS(G12D) cells (18 h; DC50, Dmax). On the procedure: A HiBit protein detection tag (amino acid sequence […], Seq ID No 1) was introduced immediately downstream of the initiating Methionine codon of the endogenous KRAS locus (Ensembl gene ID ENSG00000133703.7) of GP5d cells (ECACC Cat. No. 95090715) by CRISPR-based genome engineering using a KRAS(G12D) mutant donor construct encoding the HiBit tag. […] Correct modification of the KRAS locus was assessed by PCR-based genotyping and Sanger sequencing of the isolated PCR products. The resulting cell line is referred to as GP5d-HiBit-KRAS(G12D).
To assess PROTAC-mediated degradation of KRAS(G12D), GP5d-HiBit-KRAS(G12D) cells were seeded at 25000 cells per well in 100 μL Dulbecco's Modified Eagle medium (Sigma cat. no. D6429) supplemented with 10% fetal calf serum into white bottom opaque 96 well plates (Perkin Elmer cat no. 5680). Plates were incubated at 37° C., 5% CO2 in a humidified incubator over night to allow the cells to adhere. […] Plates were further incubated at 37° C. for 18 hours. Following incubation, 100 μL per well Promega Nano-Glo HiBit lytic detection reagent mix (Promega Nano-Glo HiBit Lytic Detection System #N3050), prepared according to the manufacturer's instructions in the kit, were added. To allow for adequate cell lysis, plates were incubated on an orbital shaker for 15 min and further incubated 30 min at room temperature. Upon completion of cell lysis, luminescence was measured using an Envision plate reader using the Ultrasensitive Luminescence Protocol for 96 well plates. Luminescence levels were normalized by the values obtained with DMSO-treated samples and plotted as percent of DMSO control. DC50 values were computed using a four parametric logistic model. Dmax values represent the maximal extent of degradation observed and is stated as percent of control (% Ctrl.) treatments. DC50 and Dmax are reported in Table 64 for representative compounds of the invention.
In general terms: The HiBiT peptide binds its large partner to form an active luciferase.

For a further assay, the system named is NCI-H358 cells. The assay can be described thus: NCI-H358 CTG proliferation assay (120 h) (NSCLC, G12C). The note with it: Homo sapiens. On the procedure:
NCI-H358 CTG Proliferation Assay (120 h) (NSCLC, G12C)
NCI-H358 cells (ATCC No. CRL-5807) are dispensed into white bottom opaque 96 well plates (Perkin Elmer cat no. 5680) at a density of 2000 cells per well in 100 μL RPMI-1640 ATCC-Formulation (Gibco #A10491)+10% FCS (fetal calf serum) (assay 1) or into black 384-well plates, flat and clear bottom (Greiner, PNr. 781091) at a density of 200 cells per well in 60 μl RPMI-1640 ATCC-Formulation (Gibco #A10491)+10% FCS (fetal calf serum) (assay 2). […] Compounds (10 mM stock in DMSO) are added at logarithmic dose series using the HP Digital Dispenser D300 (Tecan) (assay 1) or the ECHO acoustic liquid handler system (Beckman Coulter) (assay 2), normalizing for added DMSO and including DMSO controls. For the TO time point measurement, untreated cells are analyzed at the time of compound addition. Plates are incubated for 120 h, and cell viability is measured using CellTiter-Glo luminescent cell viability reagent (Promega product code G7570). Viability (stated as percent of control) is defined as relative luminescence units RLU of each well divided by the RLU of cells in DMSO controls. IC50 values are determined from viability measurements by non-linear regression using a four parameter model.

The test system of another assay is GP5d cells. The experiment in a line: GP5d cell proliferation assay (colorectal cancer, G12D), 5 days. The note with it: Homo sapiens, 120 h. On the procedure:
GP5d Cell Proliferation Assay (Colorectal Cancer, G12D)
(§1) GP5d cells (ECACC 95090715) are dispensed into white bottom opaque 96 well plates at a density of 5000 cells per well in 100 μL DMEM (BioWhittaker, Cat #BE12-605F) supplemented with 10% FCS. […] Compounds (10 mM stock in DMSO) are added at logarithmic dose series using the HP Digital Dispenser D300 (Tecan), normalizing for added DMSO. For the TO time point measurement, untreated cells are analysed at the time of compound addition. Plates are incubated for 5 days, and cell viability is measured using CellTiter-Glo luminescent cell viability reagent (Promega, Cat. No G7570). Viability (stated as percent of control) is defined as relative luminescence units RLU of each well divided by the RLU of cells in DMSO controls. IC50 values were computed from relative viability values using a four parametric logistic model.

A further assay deals with SW620 cells. The experiment in a line: SW620 cell proliferation assay (colorectal cancer, G12V), 5 days. Particulars: Homo sapiens, SW-620, 120 h. How it is done: SW620 Cell Proliferation Assay (Colorectal Cancer, G12V)
as §1, with “SW620” for “GP5d”, “(ATCC CCL-227)” for “(ECACC 95090715)”, “plates (Perkin Elmer cat no. 5680)” for “plates”, “2000” for “5000”

Setting [1] is: assay 1, read-out: H358 (assay 1) IC50.
[2] abbreviates: assay 2, read-out: H358 (assay 2) IC50.

`CC(C)c1ccc(CNC(=O)[C@@H]2C[C@@H](O)CN2C(=O)C(c2cc(OCCCCN3CCCN(c4nccc(-c5noc([C@@]6(C)CCCc7sc(N)c(C#N)c76)n5)n4)[C@@H](C)C3)no2)C(C)C)cc1` (stereo partly shown) [I-23]: half-maximal degradation at KRAS(G12D) (DC50) was put at 76.7 nM. Moreover, the “Dmax 18 h” value on KRAS(G12D) was 82 % Ctrl. Besides, the IC50 – broadly, the point on the concentration scale where inhibition reaches its midpoint – in the assay with NCI-H358 cells (setting [1]) amounted to 1150 nM; in the assay on NCI-H358 cells (setting [2]), 527 nM; with GP5d cells, 857 nM; in the assay with SW620 cells, 267 nM.
With `Cc1ncsc1-c1ccc(CNC(=O)[C@@H]2C[C@@H](O)CN2C(=O)C(c2cc(OCCCCN3CCCN(c4nccc(-c5cc([C@@]6(C)CCCc7sc(N)c(C#N)c76)sn5)n4)[C@@H](C)C3)no2)C(C)C)cc1` (stereo partly shown) [I-12], the DC50 – broadly, the midpoint of the concentration-degradation curve – at KRAS(G12D) was found to be 42.1 nM. The “Dmax 18 h” value on KRAS(G12D) was 86 % Ctrl. Also, the IC50 in the assay on NCI-H358 cells (setting [1]) is 407 nM; in the assay with NCI-H358 cells (setting [2]), 118 nM; in the assay on GP5d cells, 106 nM; with SW620 cells it was 109 nM.
Take `Cc1ncsc1-c1ccc(CNC(=O)[C@@H]2C[C@@H](O)CN2C(=O)C(c2cc(OCCCCN3CCN(c4nccc(-c5noc([C@@]6(C)CCCc7sc(N)c(C#N)c76)n5)n4)[C@@H](C)C3)no2)C(C)C)cc1` (stereo partly shown) [I-11]: the half-maximal degradation concentration (DC50) on KRAS(G12D) is 35.1 nM. On KRAS(G12D), the “Dmax 18 h” value was found to be 57 % Ctrl. For the same compound, the IC50 with NCI-H358 cells (setting [1]) was 712 nM; with NCI-H358 cells (setting [2]), 349 nM; with GP5d cells, at least 9000 nM; with SW620 cells, 9000 nM.
For the compound `CC(C)C(C(=O)N1C[C@H](O)C[C@H]1C(=O)NCc1ccc(Br)cc1)c1cc(OCCCCN2CCCN(c3nccc(-c4noc([C@@]5(C)CCCc6sc(N)c(C#N)c65)n4)n3)[C@@H](C)C2)no1` (stereo partly shown) [I-7], the DC50 on KRAS(G12D) came out at 11 nM. The “Dmax 18 h” value at KRAS(G12D) worked out at 89 % Ctrl. For the same compound, the IC50 in the assay on NCI-H358 cells (setting [1]) came out at 480 nM; with NCI-H358 cells (setting [2]) it was 180 nM; with GP5d cells it was 23.4 nM; with SW620 cells, 55.9 nM.
As for `Cc1cc(CNC(=O)[C@@H]2C[C@@H](O)CN2C(=O)C(c2cc(OCCCCN3CCCN(c4nccc(-c5noc([C@@]6(C)CCCc7sc(N)c(C#N)c76)n5)n4)[C@@H](C)C3)no2)C(C)C)c(F)cc1-c1scnc1C` (stereo partly shown) [I-13], at KRAS(G12D), half-maximal degradation (DC50) was put at 45.2 nM. For the same compound, the “Dmax 18 h” value on KRAS(G12D) amounted to 87 % Ctrl. The IC50 in the assay on NCI-H358 cells (setting [1]) turned out to be 468 nM; in the assay with NCI-H358 cells (setting [2]) it was 336 nM; with GP5d cells it was 131 nM; with SW620 cells, 206 nM.
In the case of `CC(C)C(C(=O)N1C[C@H](O)C[C@H]1C(=O)NCc1ccc(-n2ccnc2)cc1)c1cc(OCCCCN2CCCN(c3nccc(-c4noc([C@@]5(C)CCCc6sc(N)c(C#N)c65)n4)n3)[C@@H](C)C2)no1` (stereo partly shown) [I-19], the DC50 at KRAS(G12D) turned out to be 6.7 nM. Besides, on KRAS(G12D), the “Dmax 18 h” value amounted to 93 % Ctrl. The IC50 with NCI-H358 cells (setting [1]) is 346 nM; with GP5d cells it was 23.5 nM; in the assay on SW620 cells, 29 nM.
On KRAS(G12D), `Cc1ncsc1-c1ccc(CNC(=O)[C@@H]2C[C@@H](O)CN2C(=O)C(c2cc(OCCCCN3CCCN(c4nccc(-c5noc([C@@]6(C)CCCc7sc(N)c(C#N)c76)n5)n4)[C@@H](C)C3)no2)C(C)C)cc1F` (stereo partly shown) [I-5] returned a DC50 of 6.5 nM. In addition, the “Dmax 18 h” value on KRAS(G12D) was found to be 92 % Ctrl. Further, the IC50 with NCI-H358 cells (setting [1]) was found to be 117 nM; in the assay with NCI-H358 cells (setting [2]), 58.4 nM; in the assay with GP5d cells, 13.8 nM; in the assay with SW620 cells it was 47.9 nM.
Compound `Cc1ncsc1-c1ccc(CNC(=O)[C@@H]2C[C@@H](O)CN2C(=O)[C@@H](NC(=O)COCCCN2CCCN(c3nccc(-c4noc([C@@]5(C)CCCc6sc(N)c(C#N)c65)n4)n3)[C@@H](C)C2)C(C)(C)C)cc1` [I-48] came in with a DC50 at KRAS(G12D) of 523 nM. Also, the “Dmax 18 h” value at KRAS(G12D) turned out to be 85 % Ctrl. Besides, the values for the IC50 with NCI-H358 cells (setting [1]), in the assay on GP5d cells and with SW620 cells were 3550 nM, 2630 nM and 803 nM, respectively.
Consider `CC(C)C(C(=O)N1C[C@H](O)C[C@H]1C(=O)NCc1ccc(Cl)cc1)c1cc(OCCCCN2CCCN(c3nccc(-c4noc([C@@]5(C)CCCc6sc(N)c(C#N)c65)n4)n3)[C@@H](C)C2)no1` (stereo partly shown) [I-20], for which the DC50 at KRAS(G12D) amounted to 8.6 nM. Besides, at KRAS(G12D), the “Dmax 18 h” value is 89 % Ctrl. Moreover, the IC50 in the assay on NCI-H358 cells (setting [1]) was found to be 439 nM; in the assay on NCI-H358 cells (setting [2]), 377 nM; in the assay with GP5d cells, 92.4 nM; in the assay on SW620 cells it was 83.9 nM.
With `Cc1ncsc1-c1ccc(CNC(=O)[C@@H]2C[C@@H](O)CN2C(=O)C(c2cc(OCCCN3CCCN(c4nccc(-c5noc([C@@]6(C)CCCc7sc(N)c(C#N)c76)n5)n4)[C@@H](C)C3)no2)C(C)C)cc1` (stereo partly shown) [I-1], it took 6.4 nM to reach half-maximal degradation at KRAS(G12D) (DC50). For the same compound, on KRAS(G12D), the “Dmax 18 h” value turned out to be 94 % Ctrl. Moreover, the IC50 in the assay with NCI-H358 cells (setting [1]) is 151 nM; with NCI-H358 cells (setting [2]), 96.5 nM; in the assay on GP5d cells it was 22.2 nM; with SW620 cells, 27.3 nM.
